From patent publication US9828357B2, “Cyclic compounds” (Takeda Pharmaceutical Company Limited, priority 2015, dated 2017)

Assays:
[1] = test system: oxaliplatin induced-neuropathic pain model mouse; test: Analgesic action on oxaliplatin induced-neuropathic pain model mouse; format: in vivo; details: C57BL/6N mice, 1 week after oxaliplatin 0.3 mg/kg i.p., mean ± standard error
Method: Oxaliplatin was diluted with saline by the predetermined concentration, and administered intraperitoneally to mice (C57BL/6N, male, 8 weeks old) at 0.3 mg/kg. The test compound was dissolved in 10% captisol or 10% captisol containing 0.1% N-methyl-2-pyrrolidone. The compound was administered intravenously (0.1-10 mg/kg body weight) to the mice immediately before intraperitoneal administration of various anticancer drugs. The pain threshold was measured 1 week after oxaliplatin administration. The pain threshold was evaluated as a weighted value (gram) showing pseudo-escape reaction, when the footpad of the right hind limb was pressed using balance type pressurizing device (Ugo Basile). The values in the table show the mean±standard errors of the weighted values.

[2] = molecular target: T1, TLR4 (Mus musculus, UniProt Q9QUK6); test: Inhibitory effect with respect to NO production (LPS/interferon γ-stimulated RAW264.7); format: cell-based, murine; details: RAW264.7 cells, LPS 1.25 ng/mL and mouse interferon γ 0.2 ng/mL, nitrite ion in culture supernatant
T1 construct: endogenous in cells; host or cells: RAW264.7 (murine macrophage cell line)
T1 sequence (Q9QUK6 26-835): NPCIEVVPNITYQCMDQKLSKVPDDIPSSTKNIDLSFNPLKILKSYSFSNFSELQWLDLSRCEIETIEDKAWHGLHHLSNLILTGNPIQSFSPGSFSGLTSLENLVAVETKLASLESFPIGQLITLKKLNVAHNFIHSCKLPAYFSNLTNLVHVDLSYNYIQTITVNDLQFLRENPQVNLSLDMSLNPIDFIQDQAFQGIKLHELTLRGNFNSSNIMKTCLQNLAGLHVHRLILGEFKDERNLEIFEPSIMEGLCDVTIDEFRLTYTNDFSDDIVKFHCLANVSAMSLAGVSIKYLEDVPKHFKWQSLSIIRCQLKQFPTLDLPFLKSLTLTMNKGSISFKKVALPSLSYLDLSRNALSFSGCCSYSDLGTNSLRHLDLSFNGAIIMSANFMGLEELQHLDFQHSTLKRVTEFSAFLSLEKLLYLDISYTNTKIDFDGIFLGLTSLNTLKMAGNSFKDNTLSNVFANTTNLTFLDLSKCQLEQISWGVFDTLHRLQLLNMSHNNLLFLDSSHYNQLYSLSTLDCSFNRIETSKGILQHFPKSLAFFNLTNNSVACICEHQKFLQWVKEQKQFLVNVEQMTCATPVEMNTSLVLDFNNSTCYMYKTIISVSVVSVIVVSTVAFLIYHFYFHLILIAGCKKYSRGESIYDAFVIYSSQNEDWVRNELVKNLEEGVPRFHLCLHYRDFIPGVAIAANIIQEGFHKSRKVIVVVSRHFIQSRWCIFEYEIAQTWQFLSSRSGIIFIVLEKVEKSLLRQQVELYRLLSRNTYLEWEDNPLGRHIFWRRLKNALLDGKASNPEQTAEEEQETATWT
T1 sequence (Q9JHF9 19-160 partner): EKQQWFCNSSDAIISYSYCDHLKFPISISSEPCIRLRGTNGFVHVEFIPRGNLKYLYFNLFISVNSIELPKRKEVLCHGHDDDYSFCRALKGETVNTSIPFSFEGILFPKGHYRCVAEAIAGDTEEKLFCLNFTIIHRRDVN
Method: The inhibitory effect on TLR4 was determined using the inhibition rate due to the test compound with respect to NO production as a result of addition of lipopolysaccharide (LPS) using murine macrophage cell line RAW264.7. The cells were adjusted to 2×10^6 cells/mL using RPM1-1640 culture medium (phenol red free) supplemented with 10% inactivated bovine fetal serum, and were plated on 384 well plate so as to contain 6×10^4 cells/30 μL per well. Thereafter the cells were cultured at 37° C. overnight under 5% CO2/95% air. The test compound dissolved in DMSO was diluted 200 times using RPM1-1640 culture medium and adjusted so as to form a compound concentration of 500 nM. The prepared test compound 10 μL (final concentration 100 nM) was added to the cells, and LPS (Sigma) and mouse interferon γ (Wako Pure Chemicals) were added in amounts of 10 μL so as to form final concentrations of 1.25 ng/mL and 0.2 ng/mL respectively. The cells were further cultured overnight, and then the nitrite ion (stable NO metabolite) concentration in the culture supernatant was measured as an index of NO production. The nitrite ion concentration was assayed by adding 10 μL of 20 μg/mL 2,3-diamino naphthalene (DAN) dissolved in 0.2N HCl to 20 μL culture supernatant, incubating at room temperature for ten minutes, and then adding 10 μL of 0.5N NaOH, and measuring the fluorescent value at 460 nm (excitation wavelength 355 nm) using an EnVision plate reader (Perkin Elmer). The NO production inhibition rate (%) was calculated using the value without the addition of stimulating agent as control of 100% inhibition, and the value without the addition of the compound as control of 0% inhibition.

NO production inhibitory effect at 100 nM (% inhibition) [2]	SMILES	Pain threshold (weighted value showing pseudo-escape reaction) ([1]; 0.1 mg/kg i.v.)	Pain threshold (weighted value showing pseudo-escape reaction) ([1]; 0.3 mg/kg i.v.)	Pain threshold (weighted value showing pseudo-escape reaction) ([1]; 1 mg/kg i.v.)
107 % inhibition	CCOC(=O)C1=CC2(CC[C@H]1S(=O)(=O)[C@H]1CCc3cc(F)cc(Cl)c31)O[C@H](CO)[C@@H](CO)O2 [Compound 14, Ethyl (2R,3R,8R)-8-(((1S)-7-chloro-5-fluoro-2,3-dihydro-1H-inden-1-yl)sulfonyl)-2,3-bis(hydroxymethyl)-1,4-dioxaspiro[4.5]dec-6-ene-7-carboxylate]	208.0 ± 33.8 gram	215.0 ± 21.6 gram	310.0 ± 33.8 gram
112 % inhibition	CCOC(=O)C1=CC2(CC[C@H]1S(=O)(=O)[C@H]1CCc3cccc(Cl)c31)O[C@H](COC)[C@@H](COC)O2 [Compound 21, Ethyl (2R,3R,8R)-8-(((1S)-7-chloro-2,3-dihydro-1H-inden-1-yl)sulfonyl)-2,3-bis(methoxymethyl)-1,4-dioxaspiro[4.5]dec-6-ene-7-carboxylate]	160.0 ± 29.7 gram	265.0 ± 58.5 gram	285.0 ± 19.3 gram
